# “Also recorded” adds a separate entry of the source.
# Columns and labels:
# H460 NSCLC cancer cells = assay: H460 pleural cavity metastatic tumor model; format: in vivo, mice; conditions: TH302 alone Q3D×5, 100 mg/kg, i.v.
# Method: Metastatic tumors were also grown in mice by injecting H460 NSCLC cancer cells into the pleural cavity. Metastases were observed among other organs in the lungs and ovary. […] Thus, TH302 is effective in treatment of metastatic tumors, when administered alone and in combination with another anti cancer agent.
# [1] = test system: PC-3 human prostate cells; assay: PC-3 luciferase intracardiac metastasis model (bioluminescence); format: in vivo, nude mice
# Method: Male nude mice were injected into their left ventricle with PC-3 human prostate cells (3×10^6) transfected with the gene for luciferase. The success of the intracardiac transfections was verified by a bioluminescence scan after the injection. On day 14, the mice with established bone tumor burden were randomized into four treatment groups (N=10): Taxotere® alone (20 mg/kg once a week for three weeks, i.v.), TH302 alone (50 mg/kg daily, 5 days a week for 3 weeks), combination treatment with both agents, and vehicle. Bioluminescence imaging was performed under anesthesia using an IVIS 50 optical imaging system.
# [2] = Repeat dose GLP study with dogs; format: in vivo
# Description: These changes were reversible.
# [3] = GLP multiple-dose toxicity study in rats; format: in vivo
# Method: Each rat received a 30 minute infusion once a week for three weeks (Q7D×3).
# [4] = TH302 alone 50 mg/kg daily, 5 days a week for 3 weeks, end of the study (day 43)
smiles,measurement,setting,value
Cn1c(COP(=O)(NCCBr)NCCBr)cnc1[N+](=O)[O-] [TH302],metastatic tumor mass,H460 NSCLC cancer cells,visible reduction in metastatic tumor mass
same,"toxicities (weight loss, deaths)","[1]; TH302 50 mg/kg daily 5 days a week for 3 weeks, Taxotere 20 mg/kg once a week for three weeks i.v., or both",minimal weight loss; also recorded: no toxicity beyond Taxotere® related toxicities
same,reduction of bone metastases,[1]; [4],94%
same,reduction of soft tissue tumor burden,[1]; [4],95%
same,human equivalent dose of the minimally toxic dose,[2]; 8 mg/kg dog dose divided by 1.8,about 4.5 mg/kg
same,minimally toxic dose,[2]; dog,8 mg/kg
same,bone marrow finding at the high dose level,"[2]; dogs, 16 mg/kg repeat dose",hypocellularity was also reported in the bone marrow
same,hematologic findings,"[2]; dogs, 4, 8, and 16 mg/kg repeat dose, particularly at the high dose level",leucopenia and neutropenia were evident
same,reversibility of changes,"[2]; dogs, repeat dose",reversible
same,human equivalent dose of the minimally toxic dose,[3]; 25 mg/kg rat dose divided by 6.2,about 4 mg/kg
same,minimally toxic dose,[3]; rat,25 mg/kg
same,histopathology at the highest dose,"[3]; rats, 50 mg/kg Q7D×3",effects on the bone marrow and the tongue with minor effects on the kidney and the uterus
same,primary toxicities,"[3]; rats, 12.5, 25 and 50 mg/kg, 30 minute infusion Q7D×3",hematologic in nature and were reversible

# Source: patent publication US8552048B2, “Phosphoramidate alkylator prodrugs for the treatment of cancer” (Threshold Pharmaceuticals, Inc., priority 2006, dated 2013)
